Converted amounts (≈) assume the structure as drawn. Bounds are passed on as bounds.

Experiment [1] concerns Neisseria gonorrhoeae. Briefly: Antimicrobial activity against Neisseria gonorrhoeae isolate 3783. The format is functional.
For experiment [2], the system named is Neisseria gonorrhoeae. Briefly: Antimicrobial activity against high-level azithromycin resistant Neisseria gonorrhoeae isolate 1782 harboring A2143G mutation in peptidyltransferase loop in domain V of 23S rRNA alleles. It is filed as functional.
Experiment [3] concerns Neisseria gonorrhoeae. Briefly: Antimicrobial activity against azithromycin resistant Neisseria gonorrhoeae isolate 2498 harboring C2599T mutation in peptidyltransferase loop in domain V of 23S rRNA alleles. It is filed as functional.
Experiment [4] deals with Neisseria gonorrhoeae. Briefly: microbe, parasite or virus in culture.
Description: Antimicrobial activity against azithromycin resistant Neisseria gonorrhoeae isolate harboring C2599T mutation in peptidyltransferase loop in domain V of 23S rRNA alleles and T insertion in mtrR gene promoter region

Turning to `CC[C@H]1OC(=O)[C@H](C)[C@@H](O[C@H]2C[C@@](C)(OC)[C@@H](O)[C@H](C)O2)[C@H](C)[C@@H](O[C@@H]2O[C@H](C)C[C@H](N(C)C)[C@H]2O)[C@](C)(O)C[C@@H](C)CN(C)[C@H](C)[C@@H](O)[C@]1(C)O` [AZITHROMYCIN], the MIC in the experiment with Neisseria gonorrhoeae [1] was 0.06 µg/mL (≈ 0.0801 µM); against Neisseria gonorrhoeae [2] it was > 2050 µg/mL; in the experiment with Neisseria gonorrhoeae [3], 8 µg/mL (≈ 10.7 µM); in the experiment with Neisseria gonorrhoeae [4], 4 µg/mL (≈ 5.34 µM).

Values taken from ChEMBL document CHEMBL1255412, “New mutation in 23S rRNA gene associated with high level of azithromycin resistance in Neisseria gonorrhoeae” (2010).
